According to article PMC8078777 (PLoS Pathogens, 2021):
≈ marks a conversion by molar mass, not a printed value. Where “and” joins values, the source holds several entries; their conditions need not be identical. Equal entries are not always repeated. Entries after “also recorded” stand apart in the source; their conditions may differ.

Legend:
NLPPya [1] = target: T1, NLPPya (Pythium aphanidermatum, UniProt Q9SPD4); experiment: Surface plasmon resonance binding to immobilized NLPPya; conditions: for Kd: SPR, steady-state affinity model, 50 mM MES, 150 mM NaCl, 5% DMSO, pH 5.8; for SPR binding to NLPPya (in words): sensor-chip-immobilized NLPPya
T1 sequence (Q9SPD4 18-234 limits assumed): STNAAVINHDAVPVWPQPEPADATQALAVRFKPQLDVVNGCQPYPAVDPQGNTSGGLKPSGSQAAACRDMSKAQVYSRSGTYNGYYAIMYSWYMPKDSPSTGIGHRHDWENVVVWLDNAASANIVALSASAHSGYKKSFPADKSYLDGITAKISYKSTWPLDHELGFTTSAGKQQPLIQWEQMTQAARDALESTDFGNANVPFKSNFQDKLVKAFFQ
Procedure: Biacore T100 equipped with the Series S Sensor chip CM5 (GE Healthcare) was used to assess the binding of compounds to NLPPya and NLPPp. The proteins were covalently immobilized to the chip using amine coupling. The surface was activated with a 10 min injection of a mixture of 1-ethyl-3-(3-dimethylaminopropyl) carbodiimide hydrochloride / N-hydroxysuccinimide (1:1). NLPs were immobilized on the second flow cell. The first flow cell was left empty to control any nonspecific compound binding to the dextran matrix. […] In total, 587 in-house compounds (Faculty of Pharmacy, University of Ljubljana) were dissolved in DMSO as stock solutions at a concentration of 10 mM and diluted in 50 mM 2-(N-morpholino)ethanesulfonic acid (MES) and 150 mM NaCl to a final concentration of 5% DMSO (pH 5.8) prior to SPR experiments. After washing the sensor surface with running buffer (50 mM MES, 150 mM NaCl, 5% DMSO, pH 5.8), the compounds were tested at two different concentrations: 20 and 200 μM. Certain compounds were tested at lower concentrations owing to their lower solubility in the running buffer. Each compound was injected for 1 min at a flow rate of 30 μL/min, and dissociation was monitored for another minute. […] In the next set of experiments, 67 selected compounds were titrated. The samples were injected for 1 min at a flow rate of 30 μL/min, and dissociation was monitored for another minute. The samples were typically injected at the following concentrations: 0, 12.5, 25, 50, 100, and 200 μM. At the end of each concentration series, 25 μM of compound was injected again to control the activity of the surface. Regeneration between individual injections was not needed for molecules that completely dissociated from the protein. When complete dissociation was not achieved, short pulses of 0.1% SDS were included. The obtained sensorgrams were analyzed using the Biacore T100 Evaluation software, and the steady-state affinity binding model was used to calculate affinity constants.

tobacco leaves = experiment: Tobacco leaf infiltration assay, compounds alone; assay type: in vivo, Nicotiana tabacum; conditions: 1 mM compound in 5% DMSO, 24 h
Procedure: (§1) Tobacco plants (Nicotiana tabacum ‘White Burley’) were grown in a controlled growth chamber with supplementary light (70−90 μMm^-2s^-1) and a 16 h photoperiod with 22°C day and 20°C night temperatures at 75±2% humidity. Using blunt-ended syringe pressure infiltration, 100 μL of solution (either 400 nM NLPPp or 250 nM NLPPya in ultrapure water in the absence or presence of the compounds) was infiltrated abaxially into the leaves of 5−7-week-old tobacco plants (Nicotiana tabacum ‘White Burley’). 5% DMSO, NLP solutions, and appropriate compound dilutions were used as controls. The area on the upper side of the leaf, which was infiltrated with solutions, was labeled and checked for the presence of necrosis after 24 h. To thoroughly assess the effect of compound 6G7 on the level of leaf necrosis/chlorosis, 50 μL of 100 nM NLPPya solution without/with 500 μM or 1 mM 6G7 in 20 mM MES, 150 mM NaCl, pH 5.8, containing 10% DMSO was infiltrated. The level of leaf chlorosis was estimated using ImageJ software by calculating the ratio of the chlorotic area to the whole infiltrated area, both measured in squared pixels. Each value represents the average of sixteen infiltrations.

NLPPya [2] = target: T1, NLPPya; experiment: Tobacco leaf infiltration assay, NLPPya-induced necrosis/chlorosis; assay type: in vivo; conditions: 24 h; for effect on NLPPya-induced necrosis: 200 nM NLPPya, tobacco leaves
Procedure: as §1, with “([…]” for “(either 400 nM NLPPp or 250 nM NLPPya in ultrapure water in the absence or presence”, “To thoroughly assess the effect of compound 6G7 on the level of leaf necrosis/chlorosis, 50 μL of 100 nM NLPPya solution without/with 500 μM or 1 mM 6G7 in 20 mM MES, 150 mM NaCl, pH 5.8, containing 10% DMSO was infiltrated.” left out

Phytophthora infestans = assay type: in vivo; conditions: for P. infestans infection spots on potato leaves (size and coloring): 1 mM compound applied with zoospores, 4 days; for P. infestans growth on potato leaves by real-time PCR: 1 mM compound, 4 days after infection, vs control compound 6E11
[3] = Caco-2 cell toxicity, MTT assay; assay type: cell-based, human; conditions: human, Caco-2, 12.5 μM, overnight, read-out: Caco-2 cell viability, of the untreated control
Procedure: (§2) Caco-2 cells were seeded onto microtiter 96-well plates at a density of 70,000 cells/mL in 50 µL of minimal essential medium (Sigma) supplemented with 10% fetal bovine serum (Sigma), 1% L-glutamine (Gibco), and 1% non-essential amino acids (Sigma). Cells were incubated for two days at 37 °C in a humidified atmosphere containing 5% CO2. Then the cells were treated with the selected compounds at different concentrations: 6G7 and 6C3 were added at concentrations of 0.0625, 0.125, 0.25, 0.5, 1, and 2 mM, and 7C8 at concentrations of 3.125, 6.25, 12.5, 25, 50, and 100 μM. The final DMSO concentration in the medium was adjusted as indicated by the solubility of individual compounds and was reduced proportionally with serial dilutions. The highest DMSO concentration in assays was 5%. After overnight incubation, the cell viability was assessed by the MTT assay. Briefly, 3-(4,5-dimethylthiazol-2-yl)-2,5-diphenyltetrazolium bromide (MTT) reagent was added to each well at a final concentration of 1 mg/mL and incubated for 3 h. The medium was then removed, and the formazan product of living cells was dissolved in DMSO. The absorbance was measured at 570 nm with a Fluostar Galaxy microplate reader. Three independent experiments with the compounds 6C3 and 7C8 and four independent experiments with the compound 6G7 were performed.

Caco-2 cells = experiment: Caco-2 cell toxicity, MTT assay; assay type: cell-based, human; conditions: overnight
Procedure: as §2

[4] = Solubility in SPR running buffer; assay type: physicochemical; conditions: SPR running buffer containing 5% DMSO
NLPPya [5] = target: T1, NLPPya; experiment: STD-NMR binding to NLPPya; conditions: 25°C
Procedure: STD-NMR experiments were performed with 8 μM NLPPya. A pseudo-2D version of a STD-NMR pulse sequence with DPFGSE water suppression for the interleave acquisition of on- (δ 0.2 ppm) and off-resonance (δ 40 ppm) spectra was used at 25°C with 512 scans. A 30 ms spin-lock filter was used for protein signal suppression. The STD spectra were obtained by subtracting the saturated spectra from the reference spectra. The STD effect was calculated by (I0-Isat)/I0, where I0 is the signal intensity in the off-resonance spectrum, Isat is the signal intensity in the on-resonance spectrum, and I0-Isat is the intensity of the STD-NMR spectrum. Appropriate control experiments in the absence of protein were performed to assure the absence of direct irradiation of the ligand. In the titration study, five STD experiments were performed with varying ligand concentrations (40, 80, 240, 400, and 560 μM).
The STD amplification factor (STD-AF) was determined according to Eq 1, where [L] is the ligand concentration, and [P] is the NLPPya concentration.
The hyperbolic behavior of the curves obtained from plotting STD-AF as a function of ligand concentration is appropriately described by Eq 2, where STD-AF is the STD amplification factor, αSTD is the maximum amplification factor, [L] is the ligand concentration, and KD is the dissociation constant. […]

NLPPya [6] = target: T1, NLPPya; experiment: Ion leakage from tobacco leaf disks induced by NLPPya; assay type: in vivo; conditions: 100 nM NLPPya, conductivity after 2 h
Procedure: Tobacco leaves were infiltrated with 100 nM NLPPya in 20 mM MES, 150 mM NaCl pH 5.8, preincubated for 10 min with 500 μM or 1 mM 6G7. Final concentration of DMSO in solution was 10%. After 10 min incubation, 2 leaf disks were punched out (Ø 6 mm) and transferred to 2 mL of deionized distilled water. After 30 min of shaking at 430 rpm, leaf disks were transferred to 1 mL of fresh deionized distilled water. Conductivity was measured after 2 h using SevenCompact Cond meter (Mettler Toledo). Mock treated samples were discs from leaves infiltrated with buffer containing 10% DMSO or 6G7. Each value represents the average of 12–18 independent experiments.

Structure (SMILES) | Kd (NLPPya [1]) | toxic effects of compound alone on leaf tissue (tobacco leaves) | effect on NLPPya-induced necrosis (NLPPya [2]; 200 μM compound) | P. infestans infection spots on potato leaves (size and coloring) (Phytophthora infestans) | P. infestans growth on potato leaves by real-time PCR (Phytophthora infestans) | viability at 12.5 µM [3] [%] | reduction of Caco-2 cell viability (Caco-2 cells; 3.125 μM) [%] | solubility limit [4] | solubility ([4]; pH 5.8, aqueous with cosolvent or surfactant or cyclodextrin, kinetic from dmso stock, read-out: solubility limit) [µM] | SPR binding to NLPPya (in words) (NLPPya [1]) | effect on NLPPya-induced necrosis (NLPPya [2]; 1 mM compound) | reduction of Caco-2 cell viability (Caco-2 cells; 1 mM) [%] | reduction of Caco-2 cell viability (Caco-2 cells; 2 mM) [%] | effect on Caco-2 cell viability (Caco-2 cells; concentrations below 500 μM) | NLPPya-induced leaf chlorosis (NLPPya [2]; 100 nM NLPPya, 1 mM compound, buffer with 10% DMSO) | effect on Caco-2 cell viability (Caco-2 cells; up to concentrations approximately 10 times higher than its KD for NLPs) | STD signals in the presence of NLPPya (NLPPya [5]; 400 μM ligand, 1:50 receptor-to-ligand ratio) | Kd (NLPPya [5]; STD-NMR titration, 8 μM NLPPya) [µM] | ion leakage induced by NLPPya from tobacco cells (NLPPya [6]; 500 μM compound) | ion leakage induced by NLPPya from tobacco cells (NLPPya [6]; 1 mM compound)
O=C(Cc1c[nH]c2ccccc12)Nc1ccccc1CCOC(=O)Cc1c[nH]c2ccccc12 [7C8, 2-(2-(1H-indol-3-yl)acetamido)phenethyl 2-(1H-indol-3-yl)acetate] | 52.8 µM and ~50 µM | did not affect the plant tissue | inhibited | largely reduced or disappeared | significantly reduced | 20 | 35 | poorly soluble at concentrations of >180 | ~180 (≈ 81.3 µg/mL) | – | – | – | – | – | – | – | – | – | – | –
Cc1ccc2occ(C3N[C@H](C(=O)O)CS3)c(=O)c2c1 (stereo partly drawn) [6C3, (4R)-2-(6-methyl-4-oxo-4H-chromen-3-yl)thiazolidine-4-carboxylic acid] | – | did not affect the plant tissue | – | largely reduced or disappeared | significantly reduced | – | – | – | – | stable binding | inhibited | 8 | 15 | did not affect cell viability | – | – | – | – | – | –
Cc1oc([C@@H](O)[C@H](O)[C@H](O)CO)cc1C(=O)O [6E11, 2-methyl-5-((1S,2R,3R)-1,2,3,4-tetrahydroxybutyl)furan-3-carboxylic acid, reference compound] | – | did not affect the plant tissue | – | – | – | – | – | – | – | did not bind | – | – | – | – | – | – | – | – | – | –
COc1ccc(Nc2ccccc2C(=O)O)cc1 [6G7, 2-((4-methoxyphenyl)amino)benzoic acid] | 131 ± 36.4 µM | did not affect the plant tissue | – | largely reduced or disappeared | significantly reduced; also recorded: significantly inhibited | – | – | – | – | – | inhibited | – | – | – | efficiently reduced | did not affect cell viability; also recorded: non-toxic | clear STD signals | 150 ± 7 | efficiently inhibit | efficiently inhibit
